Here are results for 14 compounds from patent US20260217698A1 (BEYANG THERAPEUTICS CO., LTD., priority 2022, published 2026).

Usually IC50 stands for the concentration that inhibits the measured activity by half. The solubility is the dissolved amount per volume that the medium holds. The low end stands for little dissolved substance, the high end for much dissolved substance.

Values after ≈ are worked out from the molar mass of the structure shown.

Data set [1] addresses T1, VEGFR3 (Homo sapiens, UniProt P35916).
T1 construct: purchased Invitrogen PV4129
The data set is described as follows: Kinase inhibition, Mobility Shift Assay/IMAP, VEGFR3. In kind it is biochemical. An excerpt: (§1) This assay directly monitored the ability of compounds to inhibit kinase phosphorylation by measuring non-phosphorylated and phosphorylated substrates in kinase reactions by using Mobility Shift Assays/IMAP™ analysis.
(§2) Read the conversion ratio data on CaliperEZ Reader II. Convert conversion rates into inhibition ratio data.
(§3) “Min” indicates the readout of the control well without the addition of enzymes; and “Max” indicates the readout of the control well with the addition of DMSO Fit IC50 values with XL Fit excel add-in version […].
(§4) X indicates the log value of compound concentration, and Y indicates the inhibition ratio (% inhibition).

A short description of data set [2]: Solubility test in buffer, LC-MS. In kind it is physicochemical. The conditions noted are these: aqueous buffer, thermodynamic from solid, room temperature, shaking 8 h, pH not given (method: pH 2.0, 6.5, 7.4). How it is done:
Accurately weigh 3 portions of about 2 mg of the compound, and add appropriate volumes of buffers with the pHs of 2.0, 6.5, and 7.4 respectively to obtain a solution with a concentration of 2 mg/mL. After sonication for 10 min, fix them on a shaker and shaking for 8 h at room temperature. After shaking, sonicate for 10 min and centrifuge for 15 min at 13,000 rpm. Pipette 0.1 mL of supernatant into a new tube, shake and rinse it with 5 mL, and discard the liquid. Transfer 0.5 mL of the supernatant again to a new tube, centrifuge it for 15 min at 13,000 rpm, then collect the supernatant (if necessary, dilute with water) and analyze it by LC-MS. The sample concentrations at 3~5 points are subjected to fitting and reticle for quantification.

The target in data set [3] is T2, VEGFR1 (Homo sapiens, UniProt P17948).
T2 construct: purchased Invitrogen PR6731B
Description: Kinase inhibition, Mobility Shift Assay/IMAP, VEGFR1. The data set is classed as biochemical.
Description: as §1, §2, §3, §4

Data set [4] has as its target T3, EGFR (Homo sapiens, UniProt P00533).
T3 construct: purchased Carna 08-115
Description: Kinase inhibition, Mobility Shift Assay/IMAP, EGFR. The data set is classed as biochemical. A digest of the protocol: (§5)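 Substrate conversion (phosphorylated vs non-phosphorylated) read by mobility shift on Caliper EZ Reader II and converted to % inhibition relative to no-enzyme and DMSO controls. IC50 fitted from % inhibition versus log compound concentration.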

In data set [5] the target is VEGFR2 (Homo sapiens, UniProt P35968). The data set is described as follows: Kinase inhibition, Mobility Shift Assay/IMAP, VEGFR2. The data set is classed as biochemical. The arrangement: purchased Carna 08-191. The method, boiled down:
as §5

Data set [6] relates to melanin. Description: Binding capacity of compounds to melanin. In kind it is in vitro ADME, cuttlefish (Sepia officinalis). The settings on record: cuttlefish (Sepia officinalis), melanin suspension (1 mg/mL); 1 mg/mL melanin in PBS pH 7.4, 2 μM compound, 2 h at 37° C.; read-out: Fu % (percentage of free drug). A digest of the protocol: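 Compound (2 μM final) incubated with washed Sepia melanin (1 mg/mL, PBS pH 7.4) 2 h at 37° C with shaking; PBS with 0.1% BSA served as blank. Supernatants quantified by LC-MS/MS; bound fraction Fb derived from melanin versus blank concentration.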

The target in data set [7] is T4, TIE2 (Homo sapiens, UniProt Q02763).
T4 construct: purchased BPS 40270
Description: Kinase inhibition, Mobility Shift Assay/IMAP, TIE2. The data set is classed as biochemical. A digest of the protocol:
as §5

Data set [8] relates to HUVEC cells. The data set is described as follows: Inhibition of VEGF-induced HUVEC cell proliferation, CellTiter Glo. The data set is classed as cell-based. The conditions noted are these: Homo sapiens, 20 ng/ml VEGF, 72 hours. An excerpt: In this experiment, human umbilical vein endothelial cells (HUVEC, Lonza) were used. HUVEC cells are primary cells isolated from umbilical veins. This cell line is a model system to study the functions of endothelial cells. Endothelial cell proliferation in response to VEGF is crucial to the pathological angiogenesis associated with conditions such as tumor development and ocular neovascular diseases.
In this assay, a luciferase bioluminescence assay (CellTiter GLU™, Promega) is used to determine the inhibitory activity of the compounds against VEGF-induced HUVEC cell proliferation and viability. CellTiter GLO™ is a homogeneous method for quantifying the count of viable cells in culture based on ATP, an indicator of metabolically active cells. In this assay, the compound was incubated with HUVEC cells for 72 hours, and then the inhibitory activity of the resulting compound against VEGF-induced HUVEC cell proliferation was measured on the En Vision plate reader.
With the RPMI-1640 medium (plus 5% FBS, 1% Penicillin-Streptomycin) used for the HUVEC cell proliferation experiment, add a cell suspension to a 96-well plate at 100 μl per well, i.e., 4000 HUVEC cells/well, and incubate them overnight in a 5% CO2 incubator at 37° C. (serum starvation). After 24 hours, add 96 μl of the experimental medium to the cell wells, and then add 2 μl of the compound to the cell wells; and after 1 hour following the addition of the compound, add 2 μl of 2 μg/ml VEGF to the cell wells. Add 0.1% DMSO and 20 ng/ml VEGF to cell wells to serve as high-reading control wells. Take cell-free wells with only medium as low-reading control wells. […] After 72 hours of incubation of the cell plate in the incubator, hold the cell plate to be tested at room temperature and discard 100 μl of medium per well. Add 100 μl of CTG reagent (CellTiter Glo kit) per well, oscillate the cell plate in a fast oscillator for 3 minutes, and keep the cell plate at room temperature in the dark for 30 minutes. Read the chemiluminescence signal value with the Envision instrument.
X indicates the log value of compound concentration, Y indicates the inhibition rate (% inhibition), Top indicates the readout of the high-reading control well.
A general note: Cellular ATP, detected with luciferase, serves as a proxy for viable cell number.

Sequence of VEGFR2 (P35968 790-1356 limits assumed): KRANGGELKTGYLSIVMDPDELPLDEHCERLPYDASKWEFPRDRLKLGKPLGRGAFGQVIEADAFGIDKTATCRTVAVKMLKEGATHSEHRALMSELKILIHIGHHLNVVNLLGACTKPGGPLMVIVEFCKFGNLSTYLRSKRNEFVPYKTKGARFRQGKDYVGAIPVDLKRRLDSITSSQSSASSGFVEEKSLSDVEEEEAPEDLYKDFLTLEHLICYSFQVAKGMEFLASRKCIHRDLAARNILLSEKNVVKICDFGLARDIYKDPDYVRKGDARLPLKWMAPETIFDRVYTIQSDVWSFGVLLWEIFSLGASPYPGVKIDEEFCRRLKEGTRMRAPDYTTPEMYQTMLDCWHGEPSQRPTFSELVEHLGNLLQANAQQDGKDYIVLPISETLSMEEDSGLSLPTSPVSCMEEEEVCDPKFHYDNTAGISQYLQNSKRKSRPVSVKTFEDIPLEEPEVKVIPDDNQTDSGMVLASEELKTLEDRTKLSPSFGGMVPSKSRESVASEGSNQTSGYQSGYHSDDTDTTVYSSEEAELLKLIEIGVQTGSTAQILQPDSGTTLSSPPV
T2 sequence (P17948 27-1338): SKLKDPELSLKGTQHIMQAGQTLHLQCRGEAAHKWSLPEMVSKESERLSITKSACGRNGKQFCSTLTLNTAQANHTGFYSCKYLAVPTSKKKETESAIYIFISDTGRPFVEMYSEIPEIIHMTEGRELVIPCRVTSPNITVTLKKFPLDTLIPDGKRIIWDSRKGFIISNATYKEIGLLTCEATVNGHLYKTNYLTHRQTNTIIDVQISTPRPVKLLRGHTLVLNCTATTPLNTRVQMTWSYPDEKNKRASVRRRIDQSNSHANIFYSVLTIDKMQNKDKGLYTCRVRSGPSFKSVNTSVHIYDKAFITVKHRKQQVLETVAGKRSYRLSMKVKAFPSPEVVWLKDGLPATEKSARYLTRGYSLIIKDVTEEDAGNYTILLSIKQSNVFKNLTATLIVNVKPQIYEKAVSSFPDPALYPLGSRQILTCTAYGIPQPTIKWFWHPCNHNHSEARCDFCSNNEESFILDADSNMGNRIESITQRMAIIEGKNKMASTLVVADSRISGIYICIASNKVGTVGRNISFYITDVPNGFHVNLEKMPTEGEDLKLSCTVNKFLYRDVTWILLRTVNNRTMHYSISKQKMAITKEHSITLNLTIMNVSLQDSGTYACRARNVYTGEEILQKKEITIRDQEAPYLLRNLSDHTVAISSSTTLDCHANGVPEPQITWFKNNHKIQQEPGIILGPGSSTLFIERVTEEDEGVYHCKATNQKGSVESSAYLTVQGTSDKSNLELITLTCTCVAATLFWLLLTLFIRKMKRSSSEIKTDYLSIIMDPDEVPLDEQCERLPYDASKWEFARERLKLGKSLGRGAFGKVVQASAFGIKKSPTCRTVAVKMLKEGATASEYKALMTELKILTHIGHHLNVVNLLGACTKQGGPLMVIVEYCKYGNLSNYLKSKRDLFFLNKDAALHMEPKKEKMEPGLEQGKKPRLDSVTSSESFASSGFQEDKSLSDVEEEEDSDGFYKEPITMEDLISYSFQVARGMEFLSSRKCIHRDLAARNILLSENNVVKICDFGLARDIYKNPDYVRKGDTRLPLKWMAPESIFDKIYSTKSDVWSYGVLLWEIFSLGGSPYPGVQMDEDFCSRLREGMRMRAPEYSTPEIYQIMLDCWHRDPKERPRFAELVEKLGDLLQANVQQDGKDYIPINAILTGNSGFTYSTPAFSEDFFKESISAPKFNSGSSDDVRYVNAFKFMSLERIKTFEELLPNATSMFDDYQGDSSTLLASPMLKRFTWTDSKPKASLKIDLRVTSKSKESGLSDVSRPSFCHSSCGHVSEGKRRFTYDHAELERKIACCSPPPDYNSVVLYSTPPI
T3 sequence (P00533 669-1210 limits assumed): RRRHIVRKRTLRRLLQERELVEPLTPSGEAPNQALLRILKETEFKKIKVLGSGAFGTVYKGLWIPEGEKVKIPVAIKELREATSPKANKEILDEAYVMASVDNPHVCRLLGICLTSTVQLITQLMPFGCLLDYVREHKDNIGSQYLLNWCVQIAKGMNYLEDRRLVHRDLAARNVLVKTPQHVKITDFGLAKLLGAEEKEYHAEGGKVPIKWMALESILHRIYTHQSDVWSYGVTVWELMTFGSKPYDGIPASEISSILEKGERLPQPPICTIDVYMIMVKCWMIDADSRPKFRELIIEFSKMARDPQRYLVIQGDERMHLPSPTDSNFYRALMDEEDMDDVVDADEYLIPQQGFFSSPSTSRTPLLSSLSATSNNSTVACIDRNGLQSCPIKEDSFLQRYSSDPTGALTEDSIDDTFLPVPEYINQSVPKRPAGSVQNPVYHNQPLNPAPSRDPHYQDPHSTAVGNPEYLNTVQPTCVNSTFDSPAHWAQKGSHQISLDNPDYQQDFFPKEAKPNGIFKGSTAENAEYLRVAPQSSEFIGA
T1 sequence (P35916 25-1363): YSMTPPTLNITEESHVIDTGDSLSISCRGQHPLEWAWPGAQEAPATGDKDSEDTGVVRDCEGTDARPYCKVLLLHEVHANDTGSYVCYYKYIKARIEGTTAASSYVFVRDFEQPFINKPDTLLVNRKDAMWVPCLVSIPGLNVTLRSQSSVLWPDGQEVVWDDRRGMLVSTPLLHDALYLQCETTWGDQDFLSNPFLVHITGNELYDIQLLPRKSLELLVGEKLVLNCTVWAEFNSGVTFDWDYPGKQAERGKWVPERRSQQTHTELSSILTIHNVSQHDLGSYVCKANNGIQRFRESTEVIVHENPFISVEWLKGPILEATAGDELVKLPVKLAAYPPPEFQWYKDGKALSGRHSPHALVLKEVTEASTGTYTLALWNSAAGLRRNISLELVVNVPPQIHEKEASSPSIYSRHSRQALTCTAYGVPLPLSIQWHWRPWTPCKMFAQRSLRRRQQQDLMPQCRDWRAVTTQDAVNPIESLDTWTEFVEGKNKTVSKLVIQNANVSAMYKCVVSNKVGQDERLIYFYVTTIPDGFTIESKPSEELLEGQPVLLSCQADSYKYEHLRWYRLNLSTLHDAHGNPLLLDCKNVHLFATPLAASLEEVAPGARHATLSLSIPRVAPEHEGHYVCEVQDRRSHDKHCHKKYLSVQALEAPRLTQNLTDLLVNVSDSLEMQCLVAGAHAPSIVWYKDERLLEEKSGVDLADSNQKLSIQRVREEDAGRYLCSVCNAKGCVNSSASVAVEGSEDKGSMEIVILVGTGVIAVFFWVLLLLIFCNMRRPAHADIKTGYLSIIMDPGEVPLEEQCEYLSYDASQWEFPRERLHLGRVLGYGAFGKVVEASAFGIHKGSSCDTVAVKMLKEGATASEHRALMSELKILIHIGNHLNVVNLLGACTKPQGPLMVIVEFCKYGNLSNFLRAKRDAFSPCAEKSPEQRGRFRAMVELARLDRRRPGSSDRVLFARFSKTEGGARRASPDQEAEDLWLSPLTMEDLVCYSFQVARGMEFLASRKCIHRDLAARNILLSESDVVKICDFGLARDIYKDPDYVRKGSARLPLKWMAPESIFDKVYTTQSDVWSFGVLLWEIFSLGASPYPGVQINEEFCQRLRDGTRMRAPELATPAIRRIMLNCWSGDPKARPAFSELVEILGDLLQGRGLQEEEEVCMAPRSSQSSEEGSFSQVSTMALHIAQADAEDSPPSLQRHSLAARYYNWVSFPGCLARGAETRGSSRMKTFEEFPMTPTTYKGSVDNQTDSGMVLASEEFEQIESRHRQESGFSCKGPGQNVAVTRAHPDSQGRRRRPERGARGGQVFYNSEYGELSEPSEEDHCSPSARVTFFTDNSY
T4 sequence (Q02763 23-1124): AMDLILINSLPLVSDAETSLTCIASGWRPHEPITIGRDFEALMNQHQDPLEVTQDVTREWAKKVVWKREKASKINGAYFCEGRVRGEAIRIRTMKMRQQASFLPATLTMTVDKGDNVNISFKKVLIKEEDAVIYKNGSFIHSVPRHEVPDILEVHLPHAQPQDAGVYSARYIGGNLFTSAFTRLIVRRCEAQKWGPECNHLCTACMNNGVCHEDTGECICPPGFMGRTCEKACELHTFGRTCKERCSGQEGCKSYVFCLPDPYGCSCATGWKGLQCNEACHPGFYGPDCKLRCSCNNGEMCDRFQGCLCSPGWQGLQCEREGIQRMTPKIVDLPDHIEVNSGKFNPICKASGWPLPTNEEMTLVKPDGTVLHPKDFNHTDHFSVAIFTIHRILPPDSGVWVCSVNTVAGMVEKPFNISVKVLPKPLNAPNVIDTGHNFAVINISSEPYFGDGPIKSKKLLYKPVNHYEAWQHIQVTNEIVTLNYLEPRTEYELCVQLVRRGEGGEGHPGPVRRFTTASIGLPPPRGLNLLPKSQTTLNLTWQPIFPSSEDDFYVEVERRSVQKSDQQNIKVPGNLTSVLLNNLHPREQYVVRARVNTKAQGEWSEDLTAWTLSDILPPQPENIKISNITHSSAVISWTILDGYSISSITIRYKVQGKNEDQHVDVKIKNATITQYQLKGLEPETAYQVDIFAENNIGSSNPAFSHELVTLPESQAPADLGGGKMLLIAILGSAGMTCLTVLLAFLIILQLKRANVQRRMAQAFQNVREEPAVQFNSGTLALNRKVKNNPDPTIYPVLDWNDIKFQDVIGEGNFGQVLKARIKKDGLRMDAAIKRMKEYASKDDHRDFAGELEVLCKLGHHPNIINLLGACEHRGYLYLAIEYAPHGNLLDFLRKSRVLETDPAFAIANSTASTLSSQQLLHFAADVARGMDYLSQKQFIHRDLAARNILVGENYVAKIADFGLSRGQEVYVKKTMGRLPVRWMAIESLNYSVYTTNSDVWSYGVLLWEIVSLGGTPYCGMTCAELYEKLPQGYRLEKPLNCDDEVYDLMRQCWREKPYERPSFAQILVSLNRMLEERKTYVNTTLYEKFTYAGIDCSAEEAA

On to `NC(=O)c1c(OCc2ccc(F)c(C(=O)NC3CC3)c2)nsc1NC(=O)NCCCN1CC[C@H](F)C1` [Compound T152, 3-[[3-(cyclopropylcarbamoyl)-4-fluoro-phenyl]methoxy]-5-[3-[(3S)-3-fluoropyrrolidin-1-yl]propylcarbamoylamino]isothiazole-4-carboxamide], for which the IC50 in data set [1] turned out to be 12.8 nM; in data set [3] it was 2.25 nM; in data set [4] it was 24 µM; in data set [5] it was 3.53 nM. Further, in data set [2], the concentration in solution (solubility at 8 h) came to 815 µg/mL (≈ 1560 µM).
`CCNC(=O)c1ccc(F)c(COc2nsc(NC(=O)NCCC3CCN(CCF)CC3)c2C(N)=O)c1` [Compound T127, 3-[[5-(ethylcarbamoyl)-2-fluoro-phenyl]methoxy]-5-[2-[1-(2-fluoroethyl)-4-piperidyl]ethylcarbamoylamino]isothiazole-4-carboxamide] returned a solubility at 8 h in data set [2] of 1640 µg/mL (≈ 3040 µM). The fraction unbound at 2 h, 2 μM in data set [6] was found to be 0.0362. Further, the IC50 amounted to 241 nM in data set [7] and 3 nM in data set [5].
On to `CN1CCN(CCCNC(=O)Nc2snc(OCc3cccc(C(=O)NC4CC4)c3)c2C(N)=O)CC1` [Compound T069, 3-((3-(cyclopropylcarbamoyl)benzyl)oxy)-5-(3-(3-(4-methylpiperazin-1-yl)propyl)ureido)isothiazole-4-carboxamide], for which the concentration for half-maximal inhibition (IC50) in data set [1] is 14.6 nM; in data set [7] it was 3510 nM; in data set [3] it was 5.48 nM; in data set [4], above 60 µM; in data set [5], 2.77 nM. Further, the concentration in solution in data set [2] (solubility at 8 h) came to 633 µg/mL (≈ 1230 µM).
Take `NC(=O)c1c(OCc2cccc(C(=O)NC3CC3)c2)nsc1NC(=O)NCCCCN1CCCC1` [Compound T056, 3-((3-(cyclopropylcarbamoyl)benzyl)oxy)-5-(3-(4-(pyrrolidin-1-yl)butyl)ureido)isothiazole-4-carboxamide]: the concentration for half-maximal inhibition (IC50) in data set [1] was determined as 13.2 nM; in data set [3], 3.33 nM; in data set [4] it was 50.6 µM; in data set [5], 4.69 nM. The concentration in solution in data set [2] (solubility at 8 h) was 2000 µg/mL (≈ 4000 µM). In addition, in data set [6], the fraction unbound at 2 h, 2 μM was 0.0183.
Turning to `COc1ccc(F)c(COc2nsc(NC(=O)NCCCCN3CC[C@@H](F)C3)c2C(N)=O)c1F` [Compound T111, 3-[(2,6-difluoro-3-methoxy-phenyl)methoxy]-5-[4-[(3R)-3-fluoropyrrolidin-1-yl]butylcarbamoylamino]isothiazole-4-carboxamide], the IC50 in data set [8] is 32 nM; in data set [7] it was 223 nM; in data set [4], 19.8 µM; in data set [5], 15.1 nM. For the same compound, the fraction unbound at 2 h, 2 μM in data set [6] was determined as 0.0449.
For the compound `CNC(=O)c1cc(COc2nsc(NC(=O)NCCCCN3CCCC3)c2C(N)=O)ccc1F` [Compound T070, 3-((4-fluoro-3-(methylcarbamoyl)benzyl)oxy)-5-(3-(4-(pyrrolidin-1-yl)butyl)ureido)isothiazole-4-carboxamide], the IC50 in data set [1] was 50.1 nM; in data set [7], 7800 nM; in data set [3], 9.14 nM; in data set [4] it was above 60 µM; in data set [5], 12 nM. Besides, the solubility at 8 h in data set [2] is 927 µg/mL (≈ 1880 µM).
Consider `CN1CCN(CCNC(=O)Nc2snc(OCc3cccc(C(=O)NC4CC4)c3)c2C(N)=O)CC1` [Compound T065, 3-((3-(cyclopropylcarbamoyl)benzyl)oxy)-5-(3-(2-(4-methylpiperazin-1-yl)ethyl)ureido)isothiazole-4-carboxamide], for which the IC50 in data set [1] is 24.1 nM; in data set [7], 5430 nM; in data set [3] it was 6.55 nM; in data set [4], at least 60 µM; in data set [5], 9.95 nM. In data set [2], this compound had a solubility at 8 h of 782 µg/mL (≈ 1560 µM).
For the compound `NC(=O)c1c(OCc2ccc3c(c2)OCO3)nsc1NC(=O)NCCCCN1CCCC1` [Compound T007, 3-(benzo[d][1,3]dioxol-5-ylmethoxy)-5-(3-(4-(pyrrolidin-1-yl)butyl)ureido)isothiazole-4-carboxamide], in data set [2], the concentration in solution (solubility at 8 h) was 608 µg/mL (≈ 1320 µM). Besides, the IC50 in data set [7] was 475 nM; in data set [5], 43 nM.
`NC(=O)c1c(OCc2cc3c(cc2F)CCO3)nsc1NC(=O)NCCCCN1CC[C@H](F)C1` [Compound T115, 3-[(5-fluoro-2,3-dihydrobenzofuran-6-yl)methoxy]-5-[4-[(3S)-3-fluoropyrrolidin-1-yl]butylcarbamoylamino]isothiazole-4-carboxamide]: the IC50 in data set [8] stood at 36 nM; in data set [7], 117 nM; in data set [4], 8.22 µM; in data set [5], 7.2 nM. Besides, the fraction unbound at 2 h, 2 μM in data set [6] turned out to be 0.0148.
Take `NC(=O)c1c(OCc2cccc(C(=O)NC3CC3)c2)nsc1NC(=O)NCCCN1CCCC1` [Compound T067, 3-((3-(cyclopropylcarbamoyl)benzyl)oxy)-5-(3-(3-(pyrrolidin-1-yl)propyl)ureido)isothiazole-4-carboxamide]: the IC50 in data set [1] was 30.1 nM; in data set [3], 9.43 nM; in data set [4] it was above 60 µM; in data set [5], 8.86 nM. Further, the solubility at 8 h in data set [2] worked out at 977 µg/mL (≈ 2010 µM).
On to `COc1ccc(F)c(COc2nsc(NC(=O)NCCC3CCN(CCF)CC3)c2C(N)=O)c1F` [Compound T112, 3-[(2,6-difluoro-3-methoxy-phenyl)methoxy]-5-[2-[1-(2-fluoroethyl)-4-piperidyl]ethylcarbamoylamino]isothiazole-4-carboxamide], for which the IC50 in data set [8] worked out at 36 nM; in data set [7], 129 nM; in data set [4], 10.2 µM; in data set [5], 14.6 nM. Moreover, the fraction unbound at 2 h, 2 μM in data set [6] is 0.0222.
For `CNC(=O)c1cccc(COc2nsc(NC(=O)NCCC3CCN(C)CC3)c2C(N)=O)c1` [Compound T055, 3-((3-(methylcarbamoyl)benzyl)oxy)-5-(3-(2-(1-methylpiperidin-4-yl)ethyl)ureido)isothiazole-4-carboxamide], the concentration for half-maximal inhibition (IC50) worked out at 39.3 nM in data set [1]; 3360 nM in data set [7]; 7.7 nM in data set [3]; 49.7 µM in data set [4]; 15.7 nM in data set [5]. In data set [2], this compound came in with a solubility at 8 h of 144 µg/mL (≈ 303 µM).
`CNC(=O)c1cccc(COc2nsc(NC(=O)NCCCCN3CCCC3)c2C(N)=O)c1` [Compound T049, 3-((3-(methylcarbamoyl)benzyl)oxy)-5-(3-(4-(pyrrolidin-1-yl)butyl)ureido)isothiazole-4-carboxamide] registered a solubility at 8 h in data set [2] of 2310 µg/mL (≈ 4880 µM). The results for the IC50 in data set [7], in data set [3] and in data set [5] were 7560 nM, 21.6 nM and 19.8 nM, respectively.
`NC(=O)c1c(OCc2cc3c(cc2F)CCO3)nsc1NC(=O)NCCCN1CC[C@H](F)C1` [Compound T119, 3-[(5-fluoro-2,3-dihydrobenzofuran-6-yl)methoxy]-5-[3-[(3S)-3-fluoropyrrolidin-1-yl]propylcarbamoylamino]isothiazole-4-carboxamide]: the IC50 was 67 nM in data set [8], 205 nM in data set [7] and 19.9 µM in data set [4]. Also, the fraction unbound at 2 h, 2 μM in data set [6] was 0.0202.
